Test results published in ChEMBL document CHEMBL1201862, “PubChem BioAssay data set” (2004).
The source made the active and inactive calls.

What was measured:
Caspase-6 = Caspase-6 (Homo sapiens, UniProt P55212); test: inhibition of CASP6 peptide cleavage – biochemical, VEID-R110 fluorescence, cherry-pick, dose response (AID 720632)
Kallikrein-7 = Kallikrein-7 (Homo sapiens, UniProt P49862); test: Fluorescence Intensity-based biochemical primary high throughput dose response assay to identify activators of kallikrein-7 (K7) zymogen.
[1] = Luminescence-based cell-based high throughput dose response assay to identify activators of the DAF-12 from the parasite S. stercoralis (ssDAF-12).; format: functional
[2] = target: T1, Nucleotide-binding oligomerization domain-containing protein 1 (Homo sapiens, UniProt Q9Y239); test: blockers of NOD1 pathway activity – revised, SAR follow-up (AID 2333); format: functional
T1 sequence (Q9Y239 whole entry): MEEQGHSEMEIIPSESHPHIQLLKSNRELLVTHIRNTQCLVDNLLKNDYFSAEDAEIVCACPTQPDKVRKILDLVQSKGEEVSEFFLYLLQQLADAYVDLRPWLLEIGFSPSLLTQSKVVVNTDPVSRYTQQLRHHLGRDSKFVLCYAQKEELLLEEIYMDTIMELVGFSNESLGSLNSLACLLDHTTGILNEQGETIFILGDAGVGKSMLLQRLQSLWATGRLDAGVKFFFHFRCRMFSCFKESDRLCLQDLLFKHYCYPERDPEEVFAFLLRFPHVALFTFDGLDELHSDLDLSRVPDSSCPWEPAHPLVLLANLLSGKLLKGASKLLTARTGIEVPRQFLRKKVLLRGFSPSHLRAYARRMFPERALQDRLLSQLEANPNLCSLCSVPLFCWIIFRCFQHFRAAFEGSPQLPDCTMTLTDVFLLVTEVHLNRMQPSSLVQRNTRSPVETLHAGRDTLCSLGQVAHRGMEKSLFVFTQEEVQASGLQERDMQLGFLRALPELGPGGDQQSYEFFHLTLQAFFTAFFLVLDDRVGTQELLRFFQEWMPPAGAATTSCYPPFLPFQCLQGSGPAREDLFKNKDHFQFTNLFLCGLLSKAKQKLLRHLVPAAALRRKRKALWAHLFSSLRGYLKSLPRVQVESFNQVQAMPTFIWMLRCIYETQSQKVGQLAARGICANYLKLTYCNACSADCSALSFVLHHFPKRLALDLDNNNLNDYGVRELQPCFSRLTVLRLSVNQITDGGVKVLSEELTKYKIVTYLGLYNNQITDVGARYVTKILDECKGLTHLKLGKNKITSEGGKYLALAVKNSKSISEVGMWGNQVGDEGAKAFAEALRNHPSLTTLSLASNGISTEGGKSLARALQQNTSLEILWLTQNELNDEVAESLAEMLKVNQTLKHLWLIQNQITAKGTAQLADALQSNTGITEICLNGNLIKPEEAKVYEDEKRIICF

[3] = target: T2, COUP transcription factor 2 (Homo sapiens, UniProt P24468); test: Luminescence-based cell-based high throughput dose response assay to identify inhibitors of COUP-TFII (NR2F2).; format: functional;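 further: HEK293 cells transiently cotransfected with COUP-TFII expression vector and reporter; luciferase reporter luminescence driven by COUP-TFII from the pX2-168 reporter plasmid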
T2 sequence (P24468 whole entry): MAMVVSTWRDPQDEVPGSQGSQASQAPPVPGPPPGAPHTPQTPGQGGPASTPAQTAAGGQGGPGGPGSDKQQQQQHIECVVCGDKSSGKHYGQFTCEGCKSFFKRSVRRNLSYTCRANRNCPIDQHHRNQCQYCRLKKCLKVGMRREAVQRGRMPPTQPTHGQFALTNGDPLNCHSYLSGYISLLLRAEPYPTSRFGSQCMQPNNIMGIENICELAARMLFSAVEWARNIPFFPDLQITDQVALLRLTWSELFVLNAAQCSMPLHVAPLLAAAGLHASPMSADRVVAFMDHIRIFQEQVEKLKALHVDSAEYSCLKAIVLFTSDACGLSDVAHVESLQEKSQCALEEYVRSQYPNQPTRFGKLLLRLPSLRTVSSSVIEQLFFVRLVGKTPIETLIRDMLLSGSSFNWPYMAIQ

HEK293 = test: cells; conditions: Homo sapiens;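 further: cells exposed to compound for 14 hours overnight before viability readout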
cells [4] = format: functional, cell-based; conditions: HEK-CNG
Tumor necrosis factor = Tumor necrosis factor (Homo sapiens, UniProt P01375); test: analog potency on TNFa NF-kB signaling – cell-based, revised, SAR follow-up (AID 2337); format: functional
INS1 = test: INS-1E survival protection against cytokine death – cell-based, luminescence, retest, dose response (AID 449756); format: functional; conditions: Rattus norvegicus;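 further: cell death triggered by IL-1 beta plus TNF-alpha plus IFN-gamma mixture; protective hits raise ATP signal compared with cytokine alone wells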
Galanin receptor type 3 = Galanin receptor type 3 (Homo sapiens, UniProt O60755); test: Fluorescence-based cell-based primary high throughput dose response assay to identify antagonists of the Galanin Receptor 3 (GalR3).; format: functional
cells [5] = test: cells
[6] = target: T3, Oxysterols receptor LXR-beta (Homo sapiens, UniProt P55055); format: functional, cell-based;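 further: Cell-based luminescence dose-response assay of agonist activity at LXR, run as a confirmatory counterscreen to a daf-12 agonist screen; HEK293 cells with Gal4-LXR fusion and GAL4-driven luciferase reporter; agonist potency from rising luciferase signal of a Gal4-LXR reporter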
T3 sequence (P55055 whole entry): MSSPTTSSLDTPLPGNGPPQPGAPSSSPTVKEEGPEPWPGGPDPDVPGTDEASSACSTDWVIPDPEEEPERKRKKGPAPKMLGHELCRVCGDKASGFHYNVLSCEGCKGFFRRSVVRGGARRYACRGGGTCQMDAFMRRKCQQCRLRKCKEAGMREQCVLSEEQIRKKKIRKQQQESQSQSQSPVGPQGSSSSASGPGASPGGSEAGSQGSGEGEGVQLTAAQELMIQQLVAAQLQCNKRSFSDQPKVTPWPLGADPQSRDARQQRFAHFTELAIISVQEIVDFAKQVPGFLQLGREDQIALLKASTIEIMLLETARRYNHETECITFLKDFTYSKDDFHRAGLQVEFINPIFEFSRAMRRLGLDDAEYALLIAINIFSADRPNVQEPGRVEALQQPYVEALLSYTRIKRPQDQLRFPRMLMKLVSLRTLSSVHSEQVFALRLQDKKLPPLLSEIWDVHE

cells [7] = test: cells; remark: listed apart in the source
[8] = Trypanosoma cruzi growth suppression in host cells – NIH3T3 host cells, beta-gal luminescence, confirmation (AID 2044); format: functional, cell-based;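 further: intracellular parasites grown in NIH/3T3 mouse fibroblasts as host cells; luminescent beta-galactosidase reporter signal from transgenic T. cruzi replicating inside host cells; inhibitors lower the luminescence signal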
[9] = NIH3T3 cell viability loss – ATP luminescence, mouse fibroblasts, counter-screen, dose response (AID 2010); format: functional, cell-based;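 further: cells exposed to compound for about 90 hours before reading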
[10] = viability loss in HepG2 hepatoma cells – cell-based, ATP luminescence, cherry-pick, activator set 2, cytotoxicity control, dose response (AID 1053143); format: functional
Streptococcus = test: GAS UMAA2166 growth inhibition – luminescence, BacTiterGlo, counter-screen for streptokinase expression inhibitor project, dose response (AID 1915); format: functional, organism-based;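 further: potency for reduction of bacterial viability or growth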
[11] = system: Streptococcus sp. 'group A'; test: Streptococcus pyogenes SK(-)GAS viability under kanamycin – luminescence, BacTiterGlo, confirmation, counter-screen for streptokinase expression inhibitor project, dose response (AID 1900); format: functional, organism-based
Streptokinase A = target: T4, Streptokinase A (Streptococcus pyogenes serotype M1, UniProt P10520); test: viability-normalized secreted streptokinase activity reduction – plasminogen activation absorbance, OD405, dose response (AID 1914); format: functional, Streptococcus pyogenes M1 GAS;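 further: secreted streptokinase activity via plasminogen activation per viability signal from cell pellet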
T4 sequence (P10520 whole entry): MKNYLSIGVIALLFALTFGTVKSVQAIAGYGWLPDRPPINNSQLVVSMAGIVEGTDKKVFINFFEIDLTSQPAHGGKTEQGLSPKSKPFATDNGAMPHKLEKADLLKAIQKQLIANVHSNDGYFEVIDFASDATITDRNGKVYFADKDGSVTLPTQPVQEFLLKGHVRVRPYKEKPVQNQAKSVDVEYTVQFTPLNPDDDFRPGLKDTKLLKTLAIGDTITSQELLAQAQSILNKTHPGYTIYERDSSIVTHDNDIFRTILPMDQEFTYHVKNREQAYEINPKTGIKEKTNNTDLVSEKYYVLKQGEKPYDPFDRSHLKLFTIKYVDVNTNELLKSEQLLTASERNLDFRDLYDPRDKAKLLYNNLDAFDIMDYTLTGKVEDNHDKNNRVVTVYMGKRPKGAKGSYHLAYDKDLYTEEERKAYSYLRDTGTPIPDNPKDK

[12] = activation of miR-122 Renilla sensor silencing – cell-based, Huh7 psiCHECK-miR122, Renilla luciferase, cherry-picked, dose response (AID 651956); format: functional;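 further: huh7 hepatoma cells stably carrying a psiCHECK-2 miR-122 sensor plasmid; renilla luciferase signal reporting endogenous miR-122 activity after 48 h compound exposure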
[13] = Luminescence Cell-Based Dose Retest to Confirm Inhibitors of Cancer Stem Cells. [Related pubchem assays (depositor defined):AID2717, AID2721]; format: functional; conditions: Homo sapiens
[14] = general mammalian cell viability loss – activator set, cherry-pick, cytotoxicity control for miR-122 modulator project, dose response (AID 720690); format: functional, cell-based;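 further: HEK293T human cells scored for general mammalian cytotoxicity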

Kallikrein-7, sequence (P49862 whole entry): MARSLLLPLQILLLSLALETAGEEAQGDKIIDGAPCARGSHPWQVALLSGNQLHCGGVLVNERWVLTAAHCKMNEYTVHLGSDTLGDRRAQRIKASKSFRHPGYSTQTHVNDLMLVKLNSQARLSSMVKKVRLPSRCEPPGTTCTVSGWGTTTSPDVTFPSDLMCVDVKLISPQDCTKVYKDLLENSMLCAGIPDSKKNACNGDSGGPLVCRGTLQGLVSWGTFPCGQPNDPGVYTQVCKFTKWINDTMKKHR
Tumor necrosis factor, sequence (P01375 whole entry): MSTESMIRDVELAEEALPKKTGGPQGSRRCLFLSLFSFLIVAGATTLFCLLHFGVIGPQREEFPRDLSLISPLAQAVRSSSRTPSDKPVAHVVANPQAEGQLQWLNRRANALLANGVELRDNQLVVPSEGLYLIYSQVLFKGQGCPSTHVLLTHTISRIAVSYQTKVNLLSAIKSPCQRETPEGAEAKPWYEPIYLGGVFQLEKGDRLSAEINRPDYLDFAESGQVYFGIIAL
Caspase-6, sequence (P55212 24-179 limits assumed): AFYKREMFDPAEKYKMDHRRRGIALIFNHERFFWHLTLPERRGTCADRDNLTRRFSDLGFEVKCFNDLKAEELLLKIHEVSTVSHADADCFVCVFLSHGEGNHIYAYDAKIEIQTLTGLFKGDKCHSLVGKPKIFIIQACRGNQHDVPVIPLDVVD
Caspase-6, sequence (P55212 194-293 limits assumed): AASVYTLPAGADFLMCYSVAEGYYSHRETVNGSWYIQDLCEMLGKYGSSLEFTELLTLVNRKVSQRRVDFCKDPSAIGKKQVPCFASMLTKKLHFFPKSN
Galanin receptor type 3, sequence (O60755 whole entry): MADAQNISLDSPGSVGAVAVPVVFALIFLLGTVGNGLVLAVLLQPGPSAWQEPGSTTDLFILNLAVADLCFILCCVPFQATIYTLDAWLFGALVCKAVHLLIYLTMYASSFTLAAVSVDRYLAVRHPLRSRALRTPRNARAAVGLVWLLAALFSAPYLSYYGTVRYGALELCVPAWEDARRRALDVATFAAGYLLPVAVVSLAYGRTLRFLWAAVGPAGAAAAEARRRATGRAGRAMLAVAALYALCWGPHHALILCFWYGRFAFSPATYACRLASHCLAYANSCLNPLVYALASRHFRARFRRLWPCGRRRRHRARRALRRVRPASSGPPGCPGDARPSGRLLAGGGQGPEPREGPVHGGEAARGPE

Which AC50 (Caspase-6) does the source give for O=C1CC(C(=O)Nc2ccc(Br)cc2)C2(CCCC2)O1 (configuration not stated) here?
Its AC50 is 6.92 µM (active).

With Cc1sc(-c2ccncc2)nc1OC(=O)c1ccc(F)cc1F as the molecule, how does the EC50 (Kallikrein-7) read?
Its EC50 is 26.5 µM (inactive).

For CCOc1ccc(NC(=O)Cc2cccc3ccccc23)c([N+](=O)[O-])c1, which IC50 [1] is on record?
The IC50 was > 67.5 µM (inactive).

What does the source list for Cn1nccc1C(=O)NC1CCCc2c1cnn2-c1ccc(C(C)(C)C)cc1 (configuration not stated)?
IC50 [2]: 0.232 µM (active); IC50 [3]: 1.25 µM (active); IC50 (HEK293): 16.4 µM (active); EC50 (cells [4]): > 29.9 µM (inactive); IC50 (Tumor necrosis factor): 0.2 µM (active); AC50 (INS1): 1.62 µM (active); IC50 (Galanin receptor type 3): 0.143 µM (active)

For COc1ccc(C2C(C#N)=C(N)Oc3cc(O)ccc32)cc1Cl (configuration not stated), which AC50 (cells [5]) is on record?
The AC50 was 19.9 µM (active).

What does the source list for Cc1cccc(Nc2nc(-c3ccccc3)cs2)n1?
EC50 [6]: > 67.5 µM (inactive); EC50 (cells [7]): > 67.5 µM (inactive)

Which results are given for O=C(Nc1nc2cc3c(cc2s1)OCCO3)c1ccc([N+](=O)[O-])o1?
EC50 [8]: 1.78 µM (active); EC50 [9]: > 60 µM (not active); AC50 [10]: 26 µM (active); EC50 (Streptococcus): > 150 µM (not active); EC50 [11]: 16.6 µM (active); EC50 (Streptokinase A): > 150 µM (not active)

Which AC50 [12] does the source give for COc1ccc(-c2cc(C3CCN(c4ccc(C(C)=O)cc4[N+](=O)[O-])CC3)[nH]n2)cc1 here?
Its AC50 is 23 µM (active).

What about the EC50 [8] of the same molecule?
Its EC50 is 1.87 µM (active).

And the EC50 [9]?
Its EC50 is > 60 µM (not active).

And the AC50 [13]?
Its AC50 is 2.46 µM (active).

And the AC50 [14]?
Its AC50 is 17.6 µM (active).

And the EC50 (Streptococcus)?
Its EC50 is 24.3 µM (active).

What about the EC50 [11] of the same molecule?
Its EC50 is 2.74 µM (active).

What about the EC50 (Streptokinase A) of the same molecule?
Its EC50 is > 150 µM (not active).
